In this data set the test system is CCRIS mutagenicity, Ames/micronucleus/aberration tests. Briefly: CCRIS mutagenicity studies.
The mark [1] stands for this setting: Test System: AMES SALMONELLA TYPHIMURIUM, Strain/Indicator: TA98, Metabolic Activation: NONE, Method: PREINCUBATION
Setting [2] is: Test System: AMES SALMONELLA TYPHIMURIUM, Strain/Indicator: TA98, Metabolic Activation: NONE, Method: STANDARD PLATE.
Where [3] appears, read: Test System: AMES SALMONELLA TYPHIMURIUM, Strain/Indicator: TA100, Metabolic Activation: NONE, Method: PREINCUBATION
The mark [4] stands for this setting: Test System: AMES SALMONELLA TYPHIMURIUM, Strain/Indicator: TA100, Metabolic Activation: NONE, Method: STANDARD PLATE.

The source made the active and inactive calls. The rule behind the calls is not given here.

Consider `c1cc2ccc3cccc4ccc(c1)c2c34`, for which the mutagenic call was “inactive; negative” (End Point: IN VITRO MICRONUCLEUS, Test System: CHO CELLS, Metabolic Activation: RAT, LIVER, S-9, AROCLOR 1254); “inactive; negative” (End Point: IN VITRO MICRONUCLEUS, Test System: V79 CELLS, Metabolic Activation: NONE); “inactive; negative” (Test System: AMES SALMONELLA TYPHIMURIUM, Strain/Indicator: TA97, Metabolic Activation: NONE, Method: STANDARD PLATE); “active; positive” (Test System: AMES SALMONELLA TYPHIMURIUM, Strain/Indicator: TA97, Metabolic Activation: RAT, LIVER, S-9, AROCLOR 1254, Method: STANDARD PLATE); “active; positive” (Test System: AMES SALMONELLA TYPHIMURIUM, Strain/Indicator: TA97, Metabolic Activation: RAT, LIVER, S-9, PCB, Method: STANDARD PLATE); “active; positive” (Test System: AMES SALMONELLA TYPHIMURIUM, Strain/Indicator: TA97A, Metabolic Activation: RAT, LIVER, S-9, AROCLOR 1254, Method: STANDARD PLATE). In addition, the mutagenic call by setting is: under setting [1], “inactive; negative”; under setting [2], “inactive; negative”; (Test System: AMES SALMONELLA TYPHIMURIUM, Strain/Indicator: TA98, Metabolic Activation: RAT, LIVER, S-9, AROCLOR 1254, Method: PREINCUBATION) “inactive; negative”; (Test System: AMES SALMONELLA TYPHIMURIUM, Strain/Indicator: TA98, Metabolic Activation: RAT, LIVER, S-9, AROCLOR 1254, Method: STANDARD PLATE) “inactive; negative”; (Test System: AMES SALMONELLA TYPHIMURIUM, Strain/Indicator: TA98, Metabolic Activation: RAT, LIVER, S-9, PCB, Method: STANDARD PLATE) “active; positive”; (Test System: AMES SALMONELLA TYPHIMURIUM, Strain/Indicator: TA100, Metabolic Activation: MOUSE, LIVER, MICROSOMES, BENZO[E]PYRENE AND TCDD, Method: STANDARD PLATE) “inactive; negative”. Further, the mutagenic call was “inactive; negative” under setting [3]; “inactive; negative” under setting [4]; “inactive; negative” (Test System: AMES SALMONELLA TYPHIMURIUM, Strain/Indicator: TA100, Metabolic Activation: RAT, LIVER, S-9, AROCLOR 1254, Method: PREINCUBATION); “inactive; negative” (Test System: AMES SALMONELLA TYPHIMURIUM, Strain/Indicator: TA100, Metabolic Activation: RAT, LIVER, S-9, PCB, Method: STANDARD PLATE); “active; positive” (Test System: AMES SALMONELLA TYPHIMURIUM, Strain/Indicator: TA1537, Metabolic Activation: RAT, LIVER, S-9, AROCLOR 1254, Method: STANDARD PLATE); “inactive; negative” (Test System: CHINESE HAMSTER OVARY, Strain/Indicator: CHO (HGPRT)/6-THIOGUANINE, Metabolic Activation: NONE, Method: STANDARD PLATE). The mutagenic call is “inactive; negative” (Test System: CHINESE HAMSTER OVARY, Strain/Indicator: CHO (HGPRT)/6-THIOGUANINE, Metabolic Activation: RAT, LIVER, S-9, AROCLOR 1254, Method: STANDARD PLATE); “inactive; negative” (Test System: CHINESE HAMSTER OVARY, Strain/Indicator: CHO-K1-BH4 (HGPRT)/6-THIOGUANINE, Metabolic Activation: NONE, Method: SUSPENSION/PLATE); “inactive; negative” (Test System: CHINESE HAMSTER OVARY, Strain/Indicator: CHO-K1-BH4 (HGPRT)/6-THIOGUANINE, Metabolic Activation: S-9, Method: SUSPENSION/PLATE); “inactive; negative” (Test System: CHINESE HAMSTER OVARY, Strain/Indicator: CHO-K1-BH4 (HGPRT), Metabolic Activation: NONE, Method: SUSPENSION/PLATE); “inactive; negative” (Test System: CHINESE HAMSTER OVARY, Strain/Indicator: CHO-K1-BH4 (HGPRT), Metabolic Activation: RAT, LIVER, S-9, AROCLOR, Method: SUSPENSION/PLATE); “inactive; negative” (Test System: E. COLI, Strain/Indicator: WP2 UVRA, Metabolic Activation: HAMSTER, LIVER, S-9, AROCLOR 1254, Method: STANDARD PLATE). Besides, the mutagenic call (Test System: E. COLI, Strain/Indicator: WP2 UVRA, Metabolic Activation: HAMSTER, LIVER, S-9, Method: STANDARD PLATE) was “inactive; negative”; the mutagenic call (Test System: E. COLI, Strain/Indicator: WP2 UVRA, Metabolic Activation: MOUSE, LIVER, S-9, AROCLOR 1254, Method: STANDARD PLATE) is “inactive; negative”; the mutagenic call (Test System: E. COLI, Strain/Indicator: WP2 UVRA, Metabolic Activation: MOUSE, LIVER, S-9, Method: STANDARD PLATE) was “inactive; negative”; the mutagenic call (Test System: E. COLI, Strain/Indicator: WP2 UVRA, Metabolic Activation: NONE, Method: STANDARD PLATE) was “inactive; negative”; the mutagenic call (Test System: E. COLI, Strain/Indicator: WP2 UVRA, Metabolic Activation: RAT, LIVER, S-9, AROCLOR 1254, Method: STANDARD PLATE) is “inactive; negative”; the mutagenic call (Test System: E. COLI, Strain/Indicator: WP2 UVRA, Metabolic Activation: RAT, LIVER, S-9, Method: STANDARD PLATE) is “inactive; negative”. Moreover, the mutagenic call by setting is: (Test System: MOUSE LYMPHOMA, Strain/Indicator: L5178Y (TK+/TK-), Metabolic Activation: NONE, Method: SUSPENSION/PLATE) “inactive; negative”; (Test System: MOUSE LYMPHOMA, Strain/Indicator: L5178Y (TK+/TK-), Metabolic Activation: RAT, LIVER, S-9, AROCLOR 1254, Method: SUSPENSION/PLATE) “active; positive”; (Test System: MOUSE LYMPHOMA, Strain/Indicator: L5178Y (TK+/TK-), Metabolic Activation: S-9, Method: SUSPENSION/PLATE) “active; positive”; (Test System: UDS RAT HEPATOCYTES, Strain/Indicator: BROMODEOXYURIDINE INCORP, Metabolic Activation: NONE, Method: FLOW CYTOMETRIC ANALYSIS) “inactive; negative”; (Test System: UDS RAT HEPATOCYTES, Strain/Indicator: THY INCORP, Metabolic Activation: NONE, Method: AUTORADIOGRAPHY) “inactive; negative”; (Test System: UDS RODENT HEPATOCYTES, Strain/Indicator: THY INCORP, Metabolic Activation: NONE, Method: AUTORADIOGRAPHY) “inactive; negative”. Besides, the mutagenic call (Test System: UDS, Strain/Indicator: HEPG2/THYMIDINE INCORPORATION, Metabolic Activation: NONE, Method: AUTORADIOGRAPHY) was “inactive; negative”.

For `[N-]=[N+]=NCC(O)Cn1cnc2c(N)ncnc21` (configuration not stated), the mutagenic call under setting [4] is “active; positive”.

As to `CCOc1ccccc1[N+](=O)[O-]`, the mutagenic call is “inactive; negative” under setting [1]; “active; positive” under setting [3]; “active; positive” (Test System: AMES SALMONELLA TYPHIMURIUM, Strain/Indicator: TA1535, Metabolic Activation: NONE, Method: PREINCUBATION); “inactive; negative” (Test System: AMES SALMONELLA TYPHIMURIUM, Strain/Indicator: TA1537, Metabolic Activation: NONE, Method: PREINCUBATION); “inactive; negative” (Test System: AMES SALMONELLA TYPHIMURIUM, Strain/Indicator: TA1538, Metabolic Activation: NONE, Method: PREINCUBATION).

Regarding `O=[N+]([O-])c1ccc2c([N+](=O)[O-])cc3ccccc3c2c1`, the mutagenic call was “active; positive” (Test System: AMES SALMONELLA TYPHIMURIUM, Strain/Indicator: TA98(1,8-DNP6), Metabolic Activation: NONE, Method: STANDARD PLATE); “active; positive” (Test System: AMES SALMONELLA TYPHIMURIUM, Strain/Indicator: TA98(NR), Metabolic Activation: NONE, Method: STANDARD PLATE); “active; positive” under setting [2]; “active; positive” under setting [4]; “active; positive” (Test System: AMES SALMONELLA TYPHIMURIUM, Strain/Indicator: YG1021, Metabolic Activation: NONE, Method: STANDARD PLATE); “active; positive” (Test System: AMES SALMONELLA TYPHIMURIUM, Strain/Indicator: YG1024, Metabolic Activation: NONE, Method: STANDARD PLATE). Moreover, the mutagenic call is “active; positive” (Test System: AMES SALMONELLA TYPHIMURIUM, Strain/Indicator: YG1026, Metabolic Activation: NONE, Method: STANDARD PLATE) and “active; positive” (Test System: AMES SALMONELLA TYPHIMURIUM, Strain/Indicator: YG1029, Metabolic Activation: NONE, Method: STANDARD PLATE).

As for `Cn1cnc2ccc([N+](=O)[O-])cc21`, under setting [2], the mutagenic call is “active; positive”.

These data come from PubChem BioAssay AID1259407 (Chemical Carcinogenesis Research Information System (CCRIS), 2018).
